# Where two headings read alike, the source gives them in different places.
# Key:
# Format in all cases: cell-based
# [1] = system: SF-539; test: NCI60 one-dose screen; settings: Homo sapiens
# [2] = system: SF-295; test: NCI60 five-dose screen; settings: Homo sapiens
# [3] = system: SK-MEL-5; test: NCI60 one-dose screen; settings: Homo sapiens
# [4] = system: LOX IMVI; test: NCI60 one-dose screen; settings: Homo sapiens, read-out: Growth percent
# [5] = system: OVCAR-8; test: NCI60 five-dose screen; settings: Homo sapiens
# [6] = system: U251; test: NCI60 one-dose screen; settings: Homo sapiens
# [7] = system: MCF7; test: NCI60 five-dose screen; settings: Homo sapiens
# [8] = system: HOP-62; test: NCI60 one-dose screen; settings: Homo sapiens
# [9] = system: SF-539; test: NCI60 five-dose screen; settings: Homo sapiens
# [10] = system: SF-268; test: NCI60 one-dose screen; settings: Homo sapiens
# [11] = system: RPMI-8226; test: NCI60 five-dose screen; settings: Homo sapiens
# [12] = system: MDA-MB-435; test: NCI60 one-dose screen; settings: Homo sapiens
# [13] = system: RXF 393; test: NCI60 five-dose screen; settings: Homo sapiens
# [14] = system: HT29; test: NCI60 one-dose screen; settings: Homo sapiens
# [15] = system: MDA-MB-468; test: NCI60 five-dose screen; settings: Homo sapiens
# [16] = system: NCI-H23; test: NCI60 five-dose screen; settings: Homo sapiens
# [17] = system: MALME-3M; test: NCI60 one-dose screen; settings: Homo sapiens, read-out: Growth percent
# [18] = system: Melanoma panel; test: NCI60 five-dose screen, panel mean; settings: Homo sapiens, read-out: GI50 Mean
# [19] = system: A498; test: NCI60 five-dose screen; settings: Homo sapiens
# [20] = system: DU-145; test: NCI60 five-dose screen; settings: Homo sapiens
# [21] = system: NCI-H460; test: NCI60 one-dose screen; settings: Homo sapiens
# [22] = system: SR; test: NCI60 one-dose screen; settings: Homo sapiens, read-out: Growth percent
# [23] = system: SW-620; test: NCI60 one-dose screen; settings: Homo sapiens
# [24] = system: Non-small Cell Lung Cancer panel; test: NCI60 five-dose screen, panel mean; settings: Homo sapiens, read-out: GI50 Mean
# [25] = system: SNB-19; test: NCI60 five-dose screen; settings: Homo sapiens
# [26] = system: COLO 205; test: NCI60 one-dose screen; settings: Homo sapiens
# [27] = system: TK-10; test: NCI60 five-dose screen; settings: Homo sapiens
# [28] = system: RPMI-8226; test: NCI60 one-dose screen; settings: Homo sapiens
# [29] = system: KM12; test: NCI60 one-dose screen; settings: Homo sapiens
# [30] = system: HL-60(TB); test: NCI60 five-dose screen; settings: Homo sapiens
# [31] = system: KM12; test: NCI60 five-dose screen; settings: Homo sapiens
# [32] = system: 786-0; test: NCI60 five-dose screen; settings: Homo sapiens
# [33] = system: NCI-H226; test: NCI60 one-dose screen; settings: Homo sapiens
# [34] = system: HOP-92; test: NCI60 five-dose screen; settings: Homo sapiens
# [35] = system: SK-MEL-2; test: NCI60 one-dose screen; settings: Homo sapiens
# [36] = system: UACC-257; test: NCI60 five-dose screen; settings: Homo sapiens
# [37] = system: SK-MEL-28; test: NCI60 five-dose screen; settings: Homo sapiens
# [38] = system: NCI-H460; test: NCI60 five-dose screen; settings: Homo sapiens
# [39] = system: MCF7; test: NCI60 one-dose screen; settings: Homo sapiens
# [40] = system: PC-3; test: NCI60 five-dose screen; settings: Homo sapiens
# [41] = system: OVCAR-3; test: NCI60 five-dose screen; settings: Homo sapiens
# [42] = system: UO-31; test: NCI60 one-dose screen; settings: Homo sapiens
# [43] = system: Prostate Cancer panel; test: NCI60 five-dose screen, panel mean; settings: Homo sapiens, read-out: GI50 Mean
# [44] = system: SNB-19; test: NCI60 one-dose screen; settings: Homo sapiens
# [45] = system: SN12C; test: NCI60 one-dose screen; settings: Homo sapiens, read-out: Growth percent
# [46] = system: EKVX; test: NCI60 five-dose screen; settings: Homo sapiens
smiles,measurement,setting,value
CC[C@]12C=CCN3CC[C@@]4(c5ccc(OC)cc5N(C)[C@H]4[C@@](O)(C(=O)OC)[C@@H]1OC(=O)CCCC[P+](c1ccc(F)cc1)(c1ccc(F)cc1)c1ccc(F)cc1)[C@@H]32 [10c],activity at 10 µM,"[1]; SF-539, 10 μM, one-dose, read-out: Growth percent",16%
same,GI50,"[2]; SF-295, CNS Cancer, read-out: GI50",30.6 µM
same,activity at 10 µM,"[3]; SK-MEL-5, 10 μM, one-dose, read-out: Growth percent",-59.6%
same,activity at 10 µM,"[4]; 10 μM, one-dose",25%
same,GI50,"[5]; OVCAR-8, Ovarian Cancer, read-out: GI50",29.4 µM
same,activity at 10 µM,"[6]; U-251, U251, 10 μM, one-dose, read-out: Growth percent",13%
same,GI50,"[7]; MCF7, MCF7, Breast Cancer, read-out: GI50",11.5 µM
same,activity at 10 µM,"[8]; HOP-62, 10 μM, one-dose, read-out: Growth percent",51%
same,GI50,"[9]; SF-539, CNS Cancer, read-out: GI50",21.9 µM
same,activity at 10 µM,"[10]; SF-268, 10 μM, one-dose, read-out: Growth percent",28.1%
same,GI50,"[11]; RPMI-8226, Leukemia, read-out: GI50",2.97 µM
same,activity at 10 µM,"[12]; MDA-MB-435, 10 μM, one-dose, read-out: Growth percent",-16%
same,GI50,"[13]; RXF 393, Renal Cancer, read-out: GI50",13.3 µM
same,activity at 10 µM,"[14]; HT-29, HT29, 10 μM, one-dose, read-out: Growth percent",15.9%
same,GI50,"[15]; MDA-MB-468, MDA-MB-468, Breast Cancer, read-out: GI50",2.61 µM
same,GI50,"[16]; NCI-H23, Non-small Cell Lung Cancer, read-out: GI50",20.1 µM
same,activity at 10 µM,"[17]; MALME-3M, 10 μM, one-dose",-55.9%
same,GI50,[18]; mean over Melanoma panel,12.5 µM
same,GI50,"[19]; A498, Renal Cancer, read-out: GI50",> 100 µM
same,GI50,"[20]; DU-145, Prostate Cancer, read-out: GI50",35.4 µM
same,activity at 10 µM,"[21]; NCI-H460, 10 μM, one-dose, read-out: Growth percent",20.3%
same,activity at 10 µM,"[22]; 10 μM, one-dose",28.8%
same,activity at 10 µM,"[23]; SW-620, 10 μM, one-dose, read-out: Growth percent",36.9%
same,GI50,[24]; mean over Non-small Cell Lung Cancer panel,24.3 µM
same,GI50,"[25]; SNB-19, SNB-19, CNS Cancer, read-out: GI50",13 µM
same,activity at 10 µM,"[26]; COLO 205, 10 μM, one-dose, read-out: Growth percent",-43.4%
same,GI50,"[27]; TK-10, Renal Cancer, read-out: GI50",21.2 µM
same,activity at 10 µM,"[28]; RPMI-8226, 10 μM, one-dose, read-out: Growth percent",4.14%
same,activity at 10 µM,"[29]; KM12, 10 μM, one-dose, read-out: Growth percent",16%
same,GI50,"[30]; HL-60, HL-60(TB), Leukemia, read-out: GI50",2.11 µM
same,GI50,"[31]; KM12, KM12, Colon Cancer, read-out: GI50",13.4 µM
same,GI50,"[32]; 786-0, Renal Cancer, read-out: GI50",34.1 µM
same,activity at 10 µM,"[33]; NCI-H226, 10 μM, one-dose, read-out: Growth percent",38%
same,GI50,"[34]; HOP-92, Non-small Cell Lung Cancer, read-out: GI50",6.32 µM
same,activity at 10 µM,"[35]; SK-MEL-2, 10 μM, one-dose, read-out: Growth percent",-54%
same,GI50,"[36]; UACC-257, UACC-257, Melanoma, read-out: GI50",5.59 µM
same,GI50,"[37]; SK-MEL-28, Melanoma, read-out: GI50",8.28 µM
same,GI50,"[38]; NCI-H460, Non-small Cell Lung Cancer, read-out: GI50",29.4 µM
same,activity at 10 µM,"[39]; MCF7, 10 μM, one-dose, read-out: Growth percent",5.18%
same,GI50,"[40]; PC-3, Prostate Cancer, read-out: GI50",16.4 µM
same,GI50,"[41]; OVCAR-3, Ovarian Cancer, read-out: GI50",9.3 µM
same,activity at 10 µM,"[42]; UO-31, 10 μM, one-dose, read-out: Growth percent",85.9%
same,GI50,[43]; mean over Prostate Cancer panel,25.9 µM
same,activity at 10 µM,"[44]; SNB-19, 10 μM, one-dose, read-out: Growth percent",6.61%
same,activity at 10 µM,"[45]; 10 μM, one-dose",10.6%
same,GI50,"[46]; Non-small Cell Lung Cancer, read-out: GI50",21 µM
CC[C@]12C=CCN3CC[C@@]4(c5ccc(OC)cc5N(C)[C@H]4[C@@](O)(C(=O)OC)[C@@H]1OC(=O)CCCC[P+](C1CCCCC1)(C1CCCCC1)C1CCCCC1)[C@@H]32 [10d],activity at 10 µM,"[1]; SF-539, read-out: Growth percent",-93.9%
same,GI50,[2]; SF-295,4.4 µM
same,activity at 10 µM,"[3]; SK-MEL-5, read-out: Growth percent",-96.2%
same,activity at 10 µM,[4],-96.1%
same,GI50,[5]; OVCAR-8,2.93 µM
same,activity at 10 µM,"[6]; U-251, read-out: Growth percent",-87.9%
same,GI50,[7]; MCF7,1.05 µM
same,activity at 10 µM,"[8]; HOP-62, read-out: Growth percent",9.52%
same,GI50,[9]; SF-539,2.85 µM
same,activity at 10 µM,"[10]; SF-268, read-out: Growth percent",-70.5%
same,GI50,[11]; RPMI-8226,0.412 µM
same,activity at 10 µM,"[12]; MDA-MB-435, read-out: Growth percent",-90.5%
same,GI50,[13]; RXF 393,1.24 µM
same,activity at 10 µM,"[14]; HT-29, read-out: Growth percent",-24%
same,GI50,[15]; MDA-MB-468,0.378 µM
same,GI50,[16]; NCI-H23,2.34 µM
same,activity at 10 µM,[17]; Malme-3M,-95.9%
same,GI50,[18],1.96 µM
same,GI50,[19]; A498,13.3 µM
same,GI50,[20]; DU-145,3.65 µM
same,activity at 10 µM,"[21]; NCI-H460, read-out: Growth percent",5.27%
same,activity at 10 µM,[22],19.5%
same,activity at 10 µM,"[23]; SW-620, read-out: Growth percent",2.08%
same,GI50,[24],2.95 µM
same,GI50,[25]; SNB-19,1.92 µM
same,activity at 10 µM,"[26]; COLO 205, read-out: Growth percent",-76.6%
same,GI50,[27]; TK-10,3.08 µM
same,activity at 10 µM,"[28]; RPMI-8226, read-out: Growth percent",-45%
same,activity at 10 µM,"[29]; KM12, read-out: Growth percent",-71.1%
same,GI50,[30]; HL-60,0.293 µM
same,GI50,[31]; KM12,1.72 µM
same,GI50,[32]; 786-0,5.43 µM
same,activity at 10 µM,"[33]; NCI-H226, read-out: Growth percent",-22%
same,GI50,[34]; HOP-92,1.02 µM
same,activity at 10 µM,"[35]; SK-MEL-2, read-out: Growth percent",-88%
same,GI50,[36]; UACC-257,1.57 µM
same,GI50,[37]; SK-MEL-28,1.38 µM
same,GI50,[38]; NCI-H460,2.71 µM
same,activity at 10 µM,"[39]; MCF7, read-out: Growth percent",-64.2%
same,GI50,[40]; PC-3,1.46 µM
same,GI50,[41]; OVCAR-3,1.93 µM
same,activity at 10 µM,"[42]; UO-31, read-out: Growth percent",78.9%
same,GI50,[43],2.56 µM
same,activity at 10 µM,"[44]; SNB-19, read-out: Growth percent",-71.1%
same,activity at 10 µM,[45],-57.9%
same,GI50,[46],3.13 µM
